Source: patent publication US12624004B2 (Fudan University, priority 2019, dated 2026)
Where a name gives a salt, the structure may show the parent alone. Read-outs that look alike come from different tables or passages of the source.

Columns and labels:
μ opioid receptor = target: T1, μ opioid receptor (Homo sapiens, UniProt P35372); assay: Competition binding assay on membranes of CHO cells expressing μ opioid receptor, [3H]-labeled ligand; settings: for inhibition at 1 µM: read-out: μOR Binding rate (%); for Ki: read-out: μOR Ki
T1 construct: expressed in transfected cells; host or cells: CHO cells (membranes)
Method in brief: (§1)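 CHO membranes (20–30 μg protein) incubated with [3H]-labeled ligand at 1–2 nM and test compounds, 30 min at 30° C; nonspecific binding with 1 μM corresponding ligand. Filtered on GF/C, washed with 50 mM Tris-HCl pH 7.4, scintillation-counted. IC50 converted to Ki by Ki=IC50/(1+[L]/Kd).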

δ opioid receptor = target: T2, δ opioid receptor (Homo sapiens, UniProt P41143); assay: Competition binding assay on membranes of CHO cells expressing δ opioid receptor, [3H]-labeled ligand; settings: for inhibition at 1 µM: 0.5 h, read-out: δOR Binding rate (%)
T2 construct: expressed in transfected cells; host or cells: CHO cells (membranes)
Method in brief: as §1

κ opioid receptor = target: T3, κ opioid receptor (Homo sapiens, UniProt P41145); assay: Competition binding assay on membranes of CHO cells expressing κ opioid receptor, [3H]-labeled ligand; settings: for inhibition at 1 µM: 0.5 h, read-out: κOR Binding rate (%)
T3 construct: expressed in transfected cells; host or cells: CHO cells (membranes)
Method in brief: as §1

Female mice = assay: In vivo hot plate method analgesia test; settings: intraperitoneal; for % MPE @ 10 mg/kg: Table 3-2, hot plate 55° C.; for ED50: Mus musculus, ip; for % MPE (5 mg/kg): Table 2-2, hot plate 55° C.
Method in brief: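 Female mice (~20 g) on a 55° C hot plate, hindpaw response latency as pain threshold (pre-screen 5–30 s, 60 s cut-off). Latencies at 15, 30, 60 and 120 min after intraperitoneal dosing. %MPE = (post−pre latency)/(60−pre)×100, ED50 derived from %MPE.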

[1] = Table 3-1, 1 μM concentration of compounds
[2] = Table 2-1, 1 μM concentration of compound

COc1cccc(C2(O)CCN(C(=O)N(C)c3cccc(Cl)c3)CC2CN(C)C)c1.Cl (stereo not shown) [FWBF3, N-(3-Chlorophenyl)-3-((dimethylamino)methyl)-4-hydroxy-4-(3-methoxyphenyl)-N-methylpiperidine-1-carboxamide hydrochloride]
inhibition at 1 µM (μ opioid receptor; [1]): 8.7 ± 3.7% | inhibition at 1 µM (δ opioid receptor; [1]): 0% | inhibition at 1 µM (κ opioid receptor; [1]): 14 ± 9.7% | % MPE @ 10 mg/kg (Female mice): 3.36%

COc1cccc(C2(O)CCN(C(=O)Nc3ccc(Cl)cc3)CC2CN(C)C)c1.Cl (stereo not shown) [FWBF4, N-(4-Chlorophenyl)-3-((dimethylamino)methyl)-4-hydroxy-4-(3-methoxyphenyl)piperidine-1-carboxamide hydrochloride]
inhibition at 1 µM (μ opioid receptor; [1]): 48.8 ± 3.9% | inhibition at 1 µM (δ opioid receptor; [1]): 0% | inhibition at 1 µM (κ opioid receptor; [1]): 22.1 ± 10.7% | % MPE @ 10 mg/kg (Female mice): 68.95%

COc1cccc(C2(O)CCN(C(=O)Nc3ccc(Cl)c(Cl)c3)CC2CN(C)C)c1.Cl (stereo not shown) [FWBF5, N-(3,4-dichlorophenyl)-3-((dimethylamino)methyl)-4-hydroxy-4-(3-methoxyphenyl)piperidine-1-carboxamide hydrochloride]
inhibition at 1 µM (μ opioid receptor; [1]): 46 ± 5.4% | inhibition at 1 µM (δ opioid receptor; [1]): 0% | inhibition at 1 µM (κ opioid receptor; [1]): 18.2 ± 1.9% | % MPE @ 10 mg/kg (Female mice): 25.42%

COc1cccc(C2(O)CCN(C(=O)Nc3cc(Cl)c(Cl)c(Cl)c3)CC2CN(C)C)c1 (stereo not shown) [FWBF6, 3-((Dimethylamino)methyl)-4-hydroxy-4-(3-methoxyphenyl)-N-(3,4,5-trichlorophenyl) piperidine-1-carboxamide hydrochloride]
inhibition at 1 µM (μ opioid receptor; [1]): 13.2 ± 8% | inhibition at 1 µM (δ opioid receptor; [1]): 0% | inhibition at 1 µM (κ opioid receptor; [1]): 0% | % MPE @ 10 mg/kg (Female mice): 4.54%

COc1cccc(C2(O)CCN(C(=O)Nc3cccc(F)c3)CC2CN(C)C)c1 (stereo not shown) [FWBF7, 3-((Dimethylamino)methyl)-N-(3-fluorophenyl)-4-hydroxy-4-(3-methoxyphenyl)piperidine-1-carboxamide hydrochloride]
inhibition at 1 µM (μ opioid receptor; [1]): 36.7 ± 7.4% | inhibition at 1 µM (δ opioid receptor; [1]): 9.2 ± 7.8% | inhibition at 1 µM (κ opioid receptor; [1]): 0% | ED50 (Female mice; Table 3-2, hot plate): 4.12 mg/kg

COc1cccc(C2(O)CCN(C(=O)Nc3ccc(F)c(F)c3)CC2CN(C)C)c1.Cl (stereo not shown) [FWBF8, N-(3,4-difluorophenyl)-3-((dimethylamino)methyl)-4-hydroxy-4-(3-methoxyphenyl)piperidine-1-carboxamide hydrochloride]
inhibition at 1 µM (μ opioid receptor; [1]): 13.6 ± 13.1% | inhibition at 1 µM (δ opioid receptor; [1]): 16.4 ± 10.6% | inhibition at 1 µM (κ opioid receptor; [1]): 0% | % MPE @ 10 mg/kg (Female mice): 21.76%

COc1cccc(C2(O)CCN(C(=O)Nc3ccc(F)c(Cl)c3)CC2CN(C)C)c1 (stereo not shown) [FWBF9, N-(3-chloro-4-fluorophenyl)-3-((dimethylamino)methyl)-4-hydroxy-4-(3-methoxyphenyl) piperidine-1-carboxamide hydrochloride]
inhibition at 1 µM (μ opioid receptor; [1]): 25 ± 13.3% | inhibition at 1 µM (δ opioid receptor; [1]): 21.6 ± 13.4% | inhibition at 1 µM (κ opioid receptor; [1]): 7.1 ± 5% | % MPE @ 10 mg/kg (Female mice): 18.15%

COc1cccc(C2(O)CCN(C(=O)Nc3cc(C(F)(F)F)cc(C(F)(F)F)c3)CC2CN(C)C)c1.Cl (stereo not shown) [FWBF10, N-(3,5-Bis(trifluoromethyl)phenyl)-3-((dimethylamino)methyl)-4-hydroxy-4-(3-methoxyphenyl) piperidine-1-carboxamide hydrochloride]
inhibition at 1 µM (μ opioid receptor; [1]): 0% | inhibition at 1 µM (δ opioid receptor; [1]): 0.9% | inhibition at 1 µM (κ opioid receptor; [1]): 8.6 ± 4.8% | % MPE @ 10 mg/kg (Female mice): 7.74%

COc1cccc(C2(O)CCN(C(=O)Nc3ccc4ccccc4c3)CC2CN(C)C)c1 (stereo not shown) [FWBF11, 3-((Dimethylamino)methyl)-4-hydroxy-4-(3-methoxyphenyl)-N-(naphthalen-2-yl)piperidine-1-carboxamide hydrochloride]
inhibition at 1 µM (μ opioid receptor; [1]): 0.5% | inhibition at 1 µM (δ opioid receptor; [1]): 0% | inhibition at 1 µM (κ opioid receptor; [1]): 3.9% | % MPE @ 10 mg/kg (Female mice): 4.41%

COc1cccc(C2(O)CCN(C(=O)NCc3ccccc3)CC2CN(C)C)c1 (stereo not shown) [FWBF12, N-Benzyl-3-((dimethylamino)methyl)-4-hydroxy-4-(3-methoxyphenyl)piperidine-1-carboxamide hydrochloride]
inhibition at 1 µM (μ opioid receptor; [1]): 35.1 ± 4.4% | inhibition at 1 µM (δ opioid receptor; [1]): 2.6 ± 2.9% | inhibition at 1 µM (κ opioid receptor; [1]): 5.1 ± 4% | % MPE @ 10 mg/kg (Female mice): 15.07%

COc1cccc(C2(O)CCN(C(=O)N[C@@H](C)c3ccccc3)CC2CN(C)C)c1 (stereo partly drawn) [FWBF13, 3-((Dimethylamino)methyl)-4-hydroxy-4-(3-methoxyphenyl)-N-((S)-1-phenylethyl)piperidine-1-carboxamide hydrochloride]
inhibition at 1 µM (μ opioid receptor; [1]): 20.5 ± 5.5% | inhibition at 1 µM (δ opioid receptor; [1]): 0% | inhibition at 1 µM (κ opioid receptor; [1]): 4.1 ± 6.7% | % MPE @ 10 mg/kg (Female mice): 5.77%

COc1cccc(C2(O)CCN(C(=O)NC34CC5CC(CC(C5)C3)C4)CC2CN(C)C)c1 [FWBF14, N-((3S,5S,7S)-adamantan-1-yl)-3-((dimethylamino)methyl)-4-hydroxy-4-(3-methoxyphenyl) piperidine-1-carboxamide hydrochloride]
inhibition at 1 µM (μ opioid receptor; [1]): 13.5 ± 4.8% | inhibition at 1 µM (δ opioid receptor; [1]): 0% | inhibition at 1 µM (κ opioid receptor; [1]): 17.9 ± 4.8% | % MPE @ 10 mg/kg (Female mice): 24.15%

COc1cccc(C2(O)CCN(C(=O)NC(C)C34CC5CC(CC(C5)C3)C4)CC2CN(C)C)c1.Cl [FWBF15, N-(1-((3R,5R,7R)-adamantan-1-yl)ethyl)-3-((dimethylamino)methyl)-4-hydroxy-4-(3-methoxyphenyl)piperidine-1-carboxamide hydrochloride]
inhibition at 1 µM (μ opioid receptor; [1]): 32.8 ± 5.5% | inhibition at 1 µM (δ opioid receptor; [1]): 0% | inhibition at 1 µM (κ opioid receptor; [1]): 10.4 ± 10.2% | % MPE @ 10 mg/kg (Female mice): 22.07%

COc1cccc(C2(O)CCN(C(=O)NC34CC5CC(CC(O)(C5)C3)C4)CC2CN(C)C)c1.Cl [FWBF16, 3-((dimethylamino)methyl)-4-hydroxy-N-((1R,3S,5R,7S)-3-hydroxyadamantan-1-yl)-4-(3-methoxyphenyl)piperidine-1-carboxamide hydrochloride]
inhibition at 1 µM (μ opioid receptor; [1]): 0% | inhibition at 1 µM (δ opioid receptor; [1]): 1.9% | inhibition at 1 µM (κ opioid receptor; [1]): 0% | % MPE @ 10 mg/kg (Female mice): 16.07%

COC(=O)c1sccc1NC(=O)N1CCC(O)(c2cccc(OC)c2)C(CN(C)C)C1 (stereo not shown) [FWBF17, Methyl 3-(3-((dimethylamino)methyl)-4-hydroxy-4-(3-methoxyphenyl)piperidine-1-carboxamide) thiophene-2-carboxylate hydrochloride]
inhibition at 1 µM (μ opioid receptor; [1]): 10.2 ± 9% | inhibition at 1 µM (δ opioid receptor; [1]): 0% | inhibition at 1 µM (κ opioid receptor; [1]): 0% | % MPE @ 10 mg/kg (Female mice): 19.34%

COC(=O)c1ccsc1NC(=O)N1CCC(O)(c2cccc(OC)c2)C(CN(C)C)C1 (stereo not shown) [FWBF18, Methyl 2-(3-((dimethylamino)methyl)-4-hydroxy-4-(3-methoxyphenyl)piperidine-1-carboxamide) thiophene-3-carboxylate hydrochloride]
inhibition at 1 µM (μ opioid receptor; [1]): 2.3% | inhibition at 1 µM (δ opioid receptor; [1]): 16 ± 12.4% | inhibition at 1 µM (κ opioid receptor; [1]): 9.2 ± 3.1% | % MPE @ 10 mg/kg (Female mice): 22.76%

COc1cccc(C2(O)CCN(C(=O)Nc3cccs3)CC2CN(C)C)c1 (stereo not shown) [FWBF19, 3-((Dimethylamino)methyl)-4-hydroxy-4-(3-methoxyphenyl)-N-(thiophen-2-yl)piperidine-1-carboxamide hydrochloride]
inhibition at 1 µM (μ opioid receptor; [1]): 0% | inhibition at 1 µM (δ opioid receptor; [1]): 38.2 ± 9.4% | inhibition at 1 µM (κ opioid receptor; [1]): 27.5 ± 6.4% | % MPE @ 10 mg/kg (Female mice): 20.07%

COc1cccc(C2(O)CCN(S(=O)(=O)Cc3ccccc3)CC2CN(C)C)c1.Cl (stereo not shown) [FWBH6, 1-(Benzylsulfonyl)-3-((dimethylamino)methyl)-4-(3-methoxyphenyl)piperidin-4-ol hydrochloride]
inhibition at 1 µM (μ opioid receptor; [2]): 0% | Ki (δ opioid receptor): > 10000 nM | Ki (κ opioid receptor): > 10000 nM | ED50 (Female mice; Table 2-2, hot plate): 1.1 mg/kg

COc1cccc(C2(O)CCN(S(=O)(=O)Cc3cccc(Cl)c3)CC2CN(C)C)c1.Cl (stereo not shown) [FWBH7, 1-((3-Chlorobenzyl)sulfonyl)-3-((dimethylamino)methyl)-4-(3-methoxyphenyl)piperidin-4-ol hydrochloride]
inhibition at 1 µM (μ opioid receptor; [2]): 21.9 ± 2.4% | inhibition at 1 µM (δ opioid receptor; [2]): 28.8 ± 0.04% | inhibition at 1 µM (κ opioid receptor; [2]): 0% | ED50 (Female mice; Table 2-2, hot plate): 1.58 mg/kg

COc1cccc(C2(O)CCN(S(=O)(=O)Cc3ccc(C)cc3)CC2CN(C)C)c1.Cl (stereo not shown) [FWBH8, 3-((Dimethylamino)methyl)-4-(3-methoxyphenyl)-1-((4-methylbenzyl)sulfonyl)piperidin-4-ol hydrochloride]
Ki (μ opioid receptor; Table 2-1): 247 ± 49.4 nM | inhibition at 1 µM (δ opioid receptor; [2]): 11.9 ± 1.31% | inhibition at 1 µM (κ opioid receptor; [2]): 29 ± 0.32% | % MPE (5 mg/kg) (Female mice): 17.36%

COc1cccc(C2(O)CCN(S(=O)(=O)CCc3ccccc3)CC2CN(C)C)c1.Cl (stereo not shown) [FWBH9, 3-((Dimethylamino)methyl)-4-(3-methoxyphenyl)-1-(phenethylsulfonyl)piperidin-4-ol hydrochloride]
Ki (μ opioid receptor; Table 2-1): 1.79 ± 2 nM | inhibition at 1 µM (δ opioid receptor; [2]): 0% | inhibition at 1 µM (κ opioid receptor; [2]): 8.41 ± 1.66% | % MPE (5 mg/kg) (Female mice): 100%

COc1cccc(C2(O)CCN(S(=O)(=O)Cc3cccc(C(F)(F)F)c3)CC2CN(C)C)c1.Cl (stereo not shown) [FWBH10, 3-((Dimethylamino)methyl)-4-(3-methoxyphenyl)-1-((3-(trifluoromethyl)benzyl)sulfonyl) piperidin-4-ol hydrochloride]
Ki (μ opioid receptor; Table 2-1): 4.68 ± 0.12 nM | Ki (δ opioid receptor; Table 2-1, read-out: δOR Ki): 3650 ± 1250 nM | inhibition at 1 µM (κ opioid receptor; [2]): 30.1 ± 0.7% | % MPE (5 mg/kg) (Female mice): 72.41%
